The record followed here is the supplement of paper PMC11208160.

A short description of the series: recombinant UMI read abundance after kanamycin selection (control-corrected) (log10(CPM+1)); higher = more efficient recombination; extreme values may be limits of the assay; sequences stand for … in AGTGCAGAGAAAATCGGCCAGTTTTCTCTGCCTGCAGTCCGCATGCCGTGGGACCCCTTGGGTTCTAACCTGTTGCCTAGATTTATGCAGCGGACTGCCTTTCTCCCAAAGTGATAAACCGG…AGGTTGGTTTCACT; site = the 11-nt donor. A digest of the protocol:
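Sequencing read counts were converted to CPM, averaged over two replicates and scaled by control-derived factors. Results are given as log10(CPM+1). The reads covered the donor–target junction of recombinant UMIs from a pooled Escherichia coli screen of donor and donor-binding-loop pairs for the IS621 bridge recombinase.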
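Also: IS621 bridge recombinase in Escherichia coli cells against a fixed T5 target plasmid.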

For the sequence “CGAGCAGCATGGACCGGTTTTCCCGGTAATCCGTATTTGCT (site CAAGCAGCTAG)”, the “recombinant UMI read abundance (log10)” value worked out at 1.13.

For “CGAGCAGCATGGACCGGTTTTCCCGGTAATCCGTATTTGCT (site CCAGCAGCTAG)”, the “recombinant UMI read abundance (log10)” value was 0.0072.

As for “CGAGCAGCATGGACCGGTTTTCCCGGTAATCCGTATTTGCT (site CGAGCAGCTAG)”, the “recombinant UMI read abundance (log10)” value was found to be 2.13.

As for “CGAGCAGCATGGACCGGTTTTCCCGGTAATCCGTATTTGCT (site CGATCATCTAG)”, the “recombinant UMI read abundance (log10)” value stood at 0.

On to “CGAGCAGCATGGACCGGTTTTCCCGGTAATCCGTATTTGCT (site CTAGCAGCTAG)”, for which the “recombinant UMI read abundance (log10)” value worked out at 0.852.

As to “CGAGCATCATGGACCGGTTTTCCCGGTAATCCGTATTTGCA (site CGAGCATCTTG)”, the “recombinant UMI read abundance (log10)” value came to 2.46.

Turning to “CGAGCATCATGGACCGGTTTTCCCGGTAATCCGTATTTGCA (site CGATCATCTAG)”, the “recombinant UMI read abundance (log10)” value amounted to 0.

Regarding “CGAGCATCATGGACCGGTTTTCCCGGTAATCCGTATTTGTT (site CGAGCATCTAA)”, the “recombinant UMI read abundance (log10)” value came to 2.61.

Regarding “CGAGCATCATGGACCGGTTTTCCCGGTAATCCGTATTTGTT (site CGATCATCTAG)”, the “recombinant UMI read abundance (log10)” value is 0.

With “CGAGCCTCATGGACCGGTTTTCCCGGTAATCCGTATTTGGC (site CGAGCCTCTGC)”, the “recombinant UMI read abundance (log10)” value was determined as 2.21.

“CGAGCTTCATGGACCGGTTTTCCCGGTAATCCGTATTTGAA (site CGAGCTTCTTT)”: the “recombinant UMI read abundance (log10)” value was 1.88.

“CGAGGACCATGGACCGGTTTTCCCGGTAATCCGTATTTGAG (site CGAGGACCTCA)”: the “recombinant UMI read abundance (log10)” value turned out to be 0.015.

Turning to “CGAGGACCATGGACCGGTTTTCCCGGTAATCCGTATTTGAG (site CGAGGACCTCC)”, the “recombinant UMI read abundance (log10)” value is 0.

With “CGAGGACCATGGACCGGTTTTCCCGGTAATCCGTATTTGAG (site CGAGGACCTCG)”, the “recombinant UMI read abundance (log10)” value came out at 0.00506.

Take “CGAGGACCATGGACCGGTTTTCCCGGTAATCCGTATTTGAG (site CGAGGACCTCT)”: the “recombinant UMI read abundance (log10)” value came out at 0.00302.

As to “CGAGGAGCATGGACCGGTTTTCCCGGTAATCCGTATTTGGA (site CGAGGAGCTTC)”, the “recombinant UMI read abundance (log10)” value was 1.57.

In the case of “CGAGGATCATGGACCGGTTTTCCCGGTAATCCGTATTTGAC (site CGAGGATCTGT)”, the “recombinant UMI read abundance (log10)” value worked out at 2.99.

As to “CGAGGATCATGGACCGGTTTTCCCGGTAATCCGTATTTGAC (site CTAGTATCTGT)”, the “recombinant UMI read abundance (log10)” value came to 0.

As to “CGAGGGCCATGGACCGGTTTTCCCGGTAATCCGTATTTGCA (site CGAGGGCCTTG)”, the “recombinant UMI read abundance (log10)” value came to 0.708.

Take “CGAGGGCCATGGACCGGTTTTCCCGGTAATCCGTATTTGGG (site CGAGGACCTCC)”: the “recombinant UMI read abundance (log10)” value was determined as 0.0191.

As to “CGAGGGCCATGGACCGGTTTTCCCGGTAATCCGTATTTGGG (site CGAGGCCCTCC)”, the “recombinant UMI read abundance (log10)” value came to 0.0184.

As to “CGAGGGCCATGGACCGGTTTTCCCGGTAATCCGTATTTGGG (site CGAGGGCCTCC)”, the “recombinant UMI read abundance (log10)” value was determined as 0.0164.

As for “CGAGGGCCATGGACCGGTTTTCCCGGTAATCCGTATTTGGG (site CGAGGTCCTCC)”, the “recombinant UMI read abundance (log10)” value was 0.0269.

Regarding “CGAGTACCATGGACCGGTTTTCCCGGTAATCCGTATTTGGG (site CGAGAACCTCC)”, the “recombinant UMI read abundance (log10)” value amounted to 0.

For the sequence “CGAGTACCATGGACCGGTTTTCCCGGTAATCCGTATTTGGG (site CGAGCACCTCC)”, the “recombinant UMI read abundance (log10)” value turned out to be 0.0141.

Consider “CGAGTACCATGGACCGGTTTTCCCGGTAATCCGTATTTGGG (site CGAGGACCTCC)”, for which the “recombinant UMI read abundance (log10)” value came to 0.00419.

In the case of “CGAGTACCATGGACCGGTTTTCCCGGTAATCCGTATTTGGG (site CGAGTACCTCC)”, the “recombinant UMI read abundance (log10)” value was 0.0186.

As to “CGAGTGCCATGGACCGGTTTTCCCGGTAATCCGTATTTGTT (site CGAGTGCCTAA)”, the “recombinant UMI read abundance (log10)” value was 0.52.

With “CGATAACCATGGACCGGTTTTCCCGGTAATCCGTATTTGGT (site CGATAACCTAC)”, the “recombinant UMI read abundance (log10)” value came to 0.

For “CGATACTCATGGACCGGTTTTCCCGGTAATCCGTATTTGCT (site CGATACTCTAG)”, the “recombinant UMI read abundance (log10)” value came to 2.52.

Take “CGATACTCATGGACCGGTTTTCCCGGTAATCCGTATTTGCT (site CGATCATCTAG)”: the “recombinant UMI read abundance (log10)” value came to 0.

“CGATAGACATGGACCGGTTTTCCCGGTAATCCGTATTTGCC (site AGATAGACTGG)”: the “recombinant UMI read abundance (log10)” value stood at 0.

For “CGATAGACATGGACCGGTTTTCCCGGTAATCCGTATTTGCC (site CGATAGACTGG)”, the “recombinant UMI read abundance (log10)” value was 2.96.

Take “CGATAGACATGGACCGGTTTTCCCGGTAATCCGTATTTGCC (site GGATAGACTGG)”: the “recombinant UMI read abundance (log10)” value was 0.

As for “CGATAGACATGGACCGGTTTTCCCGGTAATCCGTATTTGCC (site TGATAGACTGG)”, the “recombinant UMI read abundance (log10)” value stood at 0.

Take “CGATAGCCATGGACCGGTTTTCCCGGTAATCCGTATTTGCT (site CGATAGCCTAG)”: the “recombinant UMI read abundance (log10)” value stood at 1.12.

Take “CGATATACATGGACCGGTTTTCCCGGTAATCCGTATTTGTA (site CGATATACTTA)”: the “recombinant UMI read abundance (log10)” value turned out to be 2.25.

As for “CGATATGCATGGACCGGTTTTCCCGGTAATCCGTATTTGGG (site CGATATGCTCC)”, the “recombinant UMI read abundance (log10)” value turned out to be 0.685.

Take “CGATCAACATGGACCGGTTTTCCCGGTAATCCGTATTTGGT (site CGATCAACTAC)”: the “recombinant UMI read abundance (log10)” value worked out at 0.796.

“CGATCAACATGGACCGGTTTTCCCGGTAATCCGTATTTGGT (site CGATCATCTAG)”: the “recombinant UMI read abundance (log10)” value amounted to 0.

Regarding “CGATCACCATGGACCGGTTTTCCCGGTAATCCGTATTTGCC (site CGATCACCTGG)”, the “recombinant UMI read abundance (log10)” value turned out to be 0.

With “CGATCACCATGGACCGGTTTTCCCGGTAATCCGTATTTGCC (site CGATCATCTAG)”, the “recombinant UMI read abundance (log10)” value was 0.

For “CGATCACCATGGACCGGTTTTCCCGGTAATCCGTATTTGCT (site CGATCAACTAG)”, the “recombinant UMI read abundance (log10)” value turned out to be 0.

Take “CGATCACCATGGACCGGTTTTCCCGGTAATCCGTATTTGCT (site CGATCACCTAG)”: the “recombinant UMI read abundance (log10)” value came to 0.

As to “CGATCACCATGGACCGGTTTTCCCGGTAATCCGTATTTGCT (site CGATCAGCTAG)”, the “recombinant UMI read abundance (log10)” value was 0.

With “CGATCACCATGGACCGGTTTTCCCGGTAATCCGTATTTGCT (site CGATCATCTAG)”, the “recombinant UMI read abundance (log10)” value is 0.

In the case of “CGATCAGCATGGACCGGTTTTCCCGGTAATCCGTATTTGCA (site CGATCAGCTTG)”, the “recombinant UMI read abundance (log10)” value is 1.9.

As for “CGATCAGCATGGACCGGTTTTCCCGGTAATCCGTATTTGCA (site CGATCATCTAG)”, the “recombinant UMI read abundance (log10)” value was found to be 0.

For “CGATCAGCATGGACCGGTTTTCCCGGTAATCCGTATTTGCT (site CGATCAACTAG)”, the “recombinant UMI read abundance (log10)” value was 0.

Take “CGATCAGCATGGACCGGTTTTCCCGGTAATCCGTATTTGCT (site CGATCACCTAG)”: the “recombinant UMI read abundance (log10)” value was found to be 0.

With “CGATCAGCATGGACCGGTTTTCCCGGTAATCCGTATTTGCT (site CGATCAGCTAG)”, the “recombinant UMI read abundance (log10)” value stood at 1.61.

Regarding “CGATCAGCATGGACCGGTTTTCCCGGTAATCCGTATTTGCT (site CGATCATCTAG)”, the “recombinant UMI read abundance (log10)” value is 0.
